pIC50: −log10 of the molar value.
Molecular target: T1, Receptor-type tyrosine-protein phosphatase C (Homo sapiens) (UniProt P08575)
T1 sequence (whole entry): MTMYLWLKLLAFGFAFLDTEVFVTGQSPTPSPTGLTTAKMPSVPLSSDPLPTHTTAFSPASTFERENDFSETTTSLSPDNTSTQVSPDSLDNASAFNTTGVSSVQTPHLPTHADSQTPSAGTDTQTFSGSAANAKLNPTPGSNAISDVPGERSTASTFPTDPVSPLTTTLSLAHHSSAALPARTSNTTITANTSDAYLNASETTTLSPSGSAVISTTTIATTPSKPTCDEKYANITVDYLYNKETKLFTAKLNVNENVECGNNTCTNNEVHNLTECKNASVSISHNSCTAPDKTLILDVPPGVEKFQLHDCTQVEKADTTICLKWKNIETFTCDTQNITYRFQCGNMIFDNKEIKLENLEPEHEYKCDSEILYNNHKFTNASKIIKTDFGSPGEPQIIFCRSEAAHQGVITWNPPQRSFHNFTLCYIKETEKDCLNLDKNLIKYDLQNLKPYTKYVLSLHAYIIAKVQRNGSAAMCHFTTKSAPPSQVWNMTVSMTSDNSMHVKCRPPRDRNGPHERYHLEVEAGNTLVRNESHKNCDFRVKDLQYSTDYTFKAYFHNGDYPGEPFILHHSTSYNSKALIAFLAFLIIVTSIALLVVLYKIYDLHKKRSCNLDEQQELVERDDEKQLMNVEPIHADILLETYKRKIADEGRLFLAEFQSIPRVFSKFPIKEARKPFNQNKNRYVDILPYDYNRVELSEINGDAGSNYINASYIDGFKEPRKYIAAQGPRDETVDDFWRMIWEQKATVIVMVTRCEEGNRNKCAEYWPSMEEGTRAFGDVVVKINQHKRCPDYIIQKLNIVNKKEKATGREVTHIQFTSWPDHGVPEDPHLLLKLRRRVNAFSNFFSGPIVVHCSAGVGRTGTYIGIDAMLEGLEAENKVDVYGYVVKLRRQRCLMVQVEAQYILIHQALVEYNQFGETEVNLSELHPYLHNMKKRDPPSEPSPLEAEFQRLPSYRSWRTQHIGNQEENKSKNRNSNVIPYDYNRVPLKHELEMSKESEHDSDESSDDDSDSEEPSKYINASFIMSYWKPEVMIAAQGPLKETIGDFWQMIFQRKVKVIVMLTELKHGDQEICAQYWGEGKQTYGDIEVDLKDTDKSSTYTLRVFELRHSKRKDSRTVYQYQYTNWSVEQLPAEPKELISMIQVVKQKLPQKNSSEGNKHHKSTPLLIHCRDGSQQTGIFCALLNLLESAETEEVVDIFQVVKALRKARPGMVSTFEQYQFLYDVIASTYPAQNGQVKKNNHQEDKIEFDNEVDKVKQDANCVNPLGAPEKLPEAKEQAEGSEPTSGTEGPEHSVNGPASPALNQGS
Assay: Compound was tested for its inhibitory activity against CD45 protein-tyrosine phosphatase of Jurkat cell membrane at 1000 uM concentration
Format: cell-based
In the case of `O=P(O)(O)C(O)c1ccccc1` (stereo unspecified), the inhibition was 39%. In the case of `O=[N+]([O-])c1cc(C(O)P(=O)(O)O)ccc1O` (stereo unspecified), the inhibition was 8%. `CC(O)(c1cccc([N+](=O)[O-])c1)P(=O)(O)O` (stereo unspecified) showed an inhibition of 97%. `O=[N+]([O-])c1ccc(C(O)P(=O)(O)O)cc1` (stereo unspecified) gave an inhibition of 98%. Work on `O=P(O)(O)C(O)c1cccc2ccccc12` (stereo unspecified) yielded an inhibition of 53%. With `N#Cc1cccc(C(O)P(=O)(O)O)c1` (stereo unspecified) the inhibition was 49%. For `O=[N+]([O-])c1cccc(C(O)P(=O)(O)O)c1` (stereo unspecified), the inhibition was 93%.

Molecular target: T1, Receptor-type tyrosine-protein phosphatase C (Homo sapiens)
Assay: Compound was tested for its inhibitory activity against CD45 protein-tyrosine phosphatase of Jurkat cell membrane at 250 uM concentration
Format: cell-based
With `O=P(O)(O)C(NCc1ccccc1)c1cccc2ccccc12` (stereo unspecified) the inhibition was 23%.

Molecular target: T1, Receptor-type tyrosine-protein phosphatase C (Homo sapiens)
Assay: Inhibition of CD45 protein-tyrosine phosphatase of Jurkat cell membrane at 500 uM.
Format: cell-based
With `O=P(O)(O)C(O)c1cccc(Cl)c1` (stereo unspecified) the inhibition was 49%. Compound `Cc1cccc(C(O)P(=O)(O)O)c1` (stereo unspecified) has an inhibition of 27%. `O=P(O)(O)C(O)c1ccccn1` (stereo unspecified) showed an inhibition of 2%. In the case of `CS(=O)(=O)c1ccc(C(O)P(=O)(O)O)cc1` (stereo unspecified), the inhibition was 41%. `O=[N+]([O-])c1ccc(SC2CCCCC2)c(C(O)P(=O)(O)O)c1` (stereo unspecified) showed an inhibition of 99%. Compound `O=P(O)(O)C(O)c1ccc2ccccc2c1` (stereo unspecified) has an inhibition of 59%. `O=[N+]([O-])c1ccc(O)c(C(O)P(=O)(O)O)c1` (stereo unspecified) showed an inhibition of 75%. Work on `O=[N+]([O-])c1cc(C(O)P(=O)(O)O)cs1` (stereo unspecified) yielded an inhibition of 93%. `COc1ccc(C(O)P(=O)(O)O)cc1` (stereo unspecified) showed an inhibition of 42%. For `O=C(c1ccccc1)C(C(=O)c1ccccc1)(c1cccc2ccccc12)P(=O)(O)O`, the inhibition was 8%. With `Cc1cccc(C(c2ccccc2)P(=O)(O)O)c1` (stereo unspecified) the inhibition was 8%. Work on `O=[N+]([O-])c1cccc(CP(=O)(O)O)c1` yielded an inhibition of 17%. `O=P(O)(O)C(O)c1cccc(O)c1` (stereo unspecified) gave an inhibition of 0%. Work on `O=[N+]([O-])c1ccc(Cl)c(C(O)P(=O)(O)O)c1` (stereo unspecified) yielded an inhibition of 81%. `Nc1cccc(C(O)P(=O)(O)O)c1` (stereo unspecified) gave an inhibition of 23%. For `O=P(O)(O)C(O)c1ccnc2ccccc12` (stereo unspecified), the inhibition was 58%. With `O=P(O)(O)C(O)c1cccnc1` (stereo unspecified) the inhibition was 13%. Compound `O=P(O)(O)C(O)c1ccncc1` (stereo unspecified) has an inhibition of 0%.

Molecular target: T2, Receptor-type tyrosine-protein phosphatase C (Homo sapiens, UniProt P08575)
T2 sequence (P08575 whole entry): T1 sequence (whole entry)
Assay: Tested for inhibitory activity against CD45 protein-tyrosine phosphatase of Jurkat cell membrane at 1000 uM
Format: cell-based
`CC(O)(c1cccc([N+](=O)[O-])c1)P(=O)(O)O` (stereo unspecified) gave a pIC50 of 4.24. `O=[N+]([O-])c1ccc(C(O)P(=O)(O)O)cc1` (stereo unspecified) showed a pIC50 of 4.55. For `O=[N+]([O-])c1cccc(C(O)P(=O)(O)O)c1` (stereo unspecified), the pIC50 was 5.00.

Molecular target: T3, Prostatic acid phosphatase (Homo sapiens, UniProt P15309)
T3 sequence (P15309 whole entry): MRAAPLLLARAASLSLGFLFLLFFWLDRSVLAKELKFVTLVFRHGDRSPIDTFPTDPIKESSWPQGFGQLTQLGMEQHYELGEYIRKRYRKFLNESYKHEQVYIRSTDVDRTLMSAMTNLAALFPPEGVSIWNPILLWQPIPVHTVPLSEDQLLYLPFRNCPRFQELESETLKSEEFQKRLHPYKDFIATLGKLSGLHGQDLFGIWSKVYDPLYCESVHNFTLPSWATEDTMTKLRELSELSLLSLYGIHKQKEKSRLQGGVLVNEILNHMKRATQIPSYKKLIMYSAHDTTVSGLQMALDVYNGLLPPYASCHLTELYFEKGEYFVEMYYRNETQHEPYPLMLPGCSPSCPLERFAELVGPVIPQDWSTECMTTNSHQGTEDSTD
Assay: Compound was tested for its inhibitory activity against human prostatic acid phosphatase
`O=P(O)(O)C(NCc1ccccc1)c1cccc2ccccc12` (stereo unspecified) gave a pIC50 of 8.07.

Molecular target: not listed separately
Assay: Compound was tested for its inhibitory activity against Osteoclastic acid phosphatase
Parameters: species or system Homo sapiens
`O=C(c1ccccc1)C(C(=O)c1ccccc1)(c1cccc2ccccc12)P(=O)(O)O` showed a pIC50 of 5.85.
